According to PubChem BioAssay (NCI):
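Assay format: 96-well plates, 48-hour exposure. Here, GI50 denotes the concentration required for 50% inhibition of growth. TGI denotes the concentration required for complete inhibition of growth.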

How the values were obtained:
Test in all cases: DTP human tumour cell line panel, 48 h
[1] = tested on: OVCAR-3 ovarian
[2] = tested on: NCI-H23 lung
[3] = tested on: OVCAR-8 ovarian
[4] = tested on: IGROV1 ovarian
[5] = tested on: NCI/ADR-RES ovarian
[6] = tested on: MDA-MB-231 breast
[7] = tested on: DU-145 prostate
[8] = tested on: HT29 colon
[9] = tested on: RPMI-8226 leukemia
[10] = tested on: SK-OV-3 ovarian
[11] = tested on: A549 NSCLC
[12] = tested on: CAKI-1 renal
[13] = tested on: NCI-H522 lung
[14] = tested on: SN12C renal
[15] = tested on: LOX IMVI melanoma
[16] = tested on: MDA-MB-435
[17] = tested on: HL-60(TB) leukemia
[18] = tested on: SF-295 CNS
[19] = tested on: MALME-3M melanoma
[20] = tested on: KM12 colon
[21] = tested on: SR leukemia
[22] = tested on: SF-268 CNS
[23] = tested on: TK-10 renal
[24] = tested on: SK-MEL-2 melanoma
[25] = tested on: OVCAR-5 ovarian
[26] = tested on: HOP-92 NSCLC
[27] = tested on: HCT-116 colon
[28] = tested on: HS 578T breast
[29] = tested on: UACC-257 melanoma
[30] = tested on: UO-31 renal
[31] = tested on: COLO 205 colon
[32] = tested on: MCF7 breast
[33] = tested on: NCI-H460 lung
[34] = tested on: MOLT-4 leukemia
[35] = tested on: RXF 393 renal
[36] = tested on: EKVX NSCLC
[37] = tested on: SNB-19 CNS
[38] = tested on: CCRF-CEM leukemia
[39] = tested on: A498 renal
[40] = tested on: HOP-62 NSCLC
[41] = tested on: OVCAR-4 ovarian
[42] = tested on: NCI-H226 lung
[43] = tested on: PC-3 prostate
[44] = tested on: SF-539 CNS
[45] = tested on: K-562 leukemia
[46] = tested on: UACC-62 melanoma
[47] = tested on: SNB-75 CNS
[48] = tested on: BT-549 breast
[49] = tested on: U251 CNS
[50] = tested on: SK-MEL-28 melanoma
[51] = tested on: SK-MEL-5 melanoma
[52] = tested on: SW-620 colon
[53] = tested on: M14 melanoma
[54] = tested on: HCC-2998 colon
[55] = tested on: HCT-15 colon
[56] = tested on: T-47D breast
[57] = tested on: ACHN renal
[58] = tested on: 786-0 renal

COc1cc(-c2n/c(=C\c3c(O)[nH]c4ccccc34)cc3c2=Nc2ccccc2-3)ccc1F
GI50 [1]: 4.08 µM
TGI [1]: 14.5 µM
GI50 [2]: 2.83 µM
TGI [2]: 17.6 µM
GI50 [3]: 8.4 µM
TGI [3]: 31.5 µM
GI50 [4]: 10.3 µM
TGI [4]: 48.9 µM
GI50 [5]: 5.78 µM
TGI [5]: 43 µM
GI50 [6]: 3.91 µM
TGI [6]: 16.8 µM
GI50 [7]: 7.3 µM
TGI [7]: 25.5 µM
GI50 [8]: 4.02 µM
TGI [8]: 16.1 µM
GI50 [9]: 17.5 µM
TGI [9]: > 100 µM
GI50 [10]: 17.1 µM
TGI [10]: 43.5 µM
GI50 [11]: 7.06 µM
TGI [11]: 23.5 µM
GI50 [12]: 38.5 µM
TGI [12]: > 100 µM
GI50 [13]: 8.79 µM
TGI [13]: 51.6 µM
GI50 [14]: 10.7 µM
TGI [14]: 34 µM
GI50 [15]: 9.09 µM
TGI [15]: 59.7 µM
GI50 [16]: 5.8 µM
TGI [16]: 64.4 µM
GI50 [17]: > 100 µM
TGI [17]: > 100 µM
GI50 [18]: 24.4 µM
TGI [18]: > 100 µM
GI50 [19]: 4.38 µM
TGI [19]: 23.2 µM
GI50 [20]: 7.7 µM
TGI [20]: > 100 µM
GI50 [21]: 2.05 µM
TGI [21]: 20.2 µM
GI50 [22]: 10.6 µM
TGI [22]: 44.2 µM
GI50 [23]: 3.89 µM
TGI [23]: 13 µM
GI50 [24]: 21.7 µM
TGI [24]: 62.2 µM
GI50 [25]: 22.2 µM
TGI [25]: 90.8 µM
GI50 [26]: 3.29 µM
TGI [26]: 19.9 µM
GI50 [27]: 4.09 µM
TGI [27]: 21.6 µM
GI50 [28]: 19.7 µM
TGI [28]: > 100 µM
GI50 [29]: 15 µM
TGI [29]: 40 µM
GI50 [30]: 25.6 µM
TGI [30]: > 100 µM
GI50 [31]: 10.9 µM
TGI [31]: > 100 µM
GI50 [32]: 2.51 µM
TGI [32]: > 100 µM
GI50 [33]: 4.37 µM
TGI [33]: 58.2 µM
GI50 [34]: 9.61 µM
TGI [34]: 97.9 µM
GI50 [35]: 3.61 µM
TGI [35]: 22.2 µM
GI50 [36]: 20.9 µM
TGI [36]: > 100 µM
GI50 [37]: 4.94 µM
TGI [37]: 24.3 µM
GI50 [38]: 4.75 µM
TGI [38]: > 100 µM
GI50 [39]: 40.4 µM
TGI [39]: > 100 µM
GI50 [40]: 4.68 µM
TGI [40]: 17.3 µM
GI50 [41]: 2.32 µM
TGI [41]: 6.4 µM
GI50 [42]: 19.9 µM
TGI [42]: > 100 µM
GI50 [43]: 10.2 µM
TGI [43]: 48.8 µM
GI50 [44]: 11.7 µM
TGI [44]: 33.2 µM
GI50 [45]: 5.88 µM
TGI [45]: 62.1 µM
GI50 [46]: 5.98 µM
TGI [46]: 21.7 µM
GI50 [47]: 16.2 µM
TGI [47]: 63.6 µM
GI50 [48]: 4.07 µM
TGI [48]: 18.1 µM
GI50 [49]: 2.05 µM
TGI [49]: 4.19 µM
GI50 [50]: 6.2 µM
TGI [50]: 22.6 µM
GI50 [51]: 4.45 µM
TGI [51]: 24.1 µM
GI50 [52]: 4.15 µM
TGI [52]: 86.7 µM
GI50 [53]: 5.2 µM
TGI [53]: 22.3 µM
GI50 [54]: 4.32 µM
TGI [54]: > 100 µM
GI50 [55]: 17.2 µM
TGI [55]: > 100 µM
GI50 [56]: 6.87 µM
TGI [56]: 82 µM
GI50 [57]: 8.09 µM
TGI [57]: 35.2 µM

COc1cc(/C=C2\C[C@H]3[C@@H]4CC=C5C[C@@H](O)CC[C@]5(C)[C@H]4CC[C@]3(C)[C@H]2O)ccc1OCCN1CCCCC1
GI50 [1]: 0.772 µM
TGI [1]: 1.53 µM
GI50 [2]: 1.21 µM
TGI [2]: 3.21 µM
GI50 [3]: 1.57 µM
TGI [3]: > 12.1 µM
GI50 [4]: 2.35 µM
TGI [4]: > 26.3 µM
GI50 [5]: 1.46 µM
TGI [5]: 4.66 µM
GI50 [6]: 0.605 µM
TGI [6]: 1.39 µM
GI50 [7]: 1.61 µM
TGI [7]: 4.58 µM
GI50 [8]: 1.54 µM
TGI [8]: > 50 µM
GI50 [9]: 0.776 µM
TGI [9]: 1.98 µM
GI50 [11]: 0.815 µM
TGI [11]: 2.23 µM
GI50 [12]: 1.74 µM
TGI [12]: 3.36 µM
GI50 [13]: 1.6 µM
TGI [13]: > 50 µM
GI50 [14]: 0.813 µM
TGI [14]: 1.75 µM
GI50 [15]: 0.589 µM
TGI [15]: 1.34 µM
GI50 [16]: 0.945 µM
TGI [16]: 1.8 µM
GI50 [17]: 1.33 µM
TGI [17]: 3.18 µM
GI50 [18]: 0.906 µM
TGI [18]: 1.75 µM
GI50 [20]: 0.912 µM
TGI [20]: 2.12 µM
GI50 [21]: 1.11 µM
TGI [21]: > 50 µM
GI50 [22]: 1.74 µM
TGI [22]: 12.5 µM
GI50 [23]: 1.61 µM
TGI [23]: 3.64 µM
GI50 [24]: 5 µM
TGI [24]: > 50 µM
GI50 [25]: 1.03 µM
TGI [25]: 2.6 µM
GI50 [26]: 0.688 µM
TGI [26]: 1.47 µM
GI50 [27]: 0.254 µM
TGI [27]: 0.494 µM
GI50 [28]: 1.44 µM
TGI [28]: > 10.7 µM
GI50 [29]: 1.61 µM
TGI [29]: 5.02 µM
GI50 [30]: 1.18 µM
GI50 [32]: 1.31 µM
TGI [32]: 20.5 µM
GI50 [33]: 1.21 µM
TGI [33]: 3.62 µM
GI50 [34]: 3.07 µM
TGI [34]: > 50 µM
GI50 [35]: 1.04 µM
TGI [35]: 2.31 µM
GI50 [36]: 1.67 µM
TGI [36]: 9.62 µM
GI50 [37]: 2.17 µM
TGI [37]: > 50 µM
GI50 [38]: 0.37 µM
TGI [38]: 1.88 µM
GI50 [39]: 14.3 µM
TGI [39]: 31.3 µM
GI50 [40]: 0.799 µM
TGI [40]: 1.68 µM
GI50 [42]: 2.53 µM
TGI [42]: 5.62 µM
GI50 [43]: 1.03 µM
TGI [43]: 7.01 µM
GI50 [44]: 1.1 µM
TGI [44]: 2.1 µM
GI50 [45]: 0.491 µM
TGI [45]: 1.32 µM
GI50 [58]: 0.47 µM
TGI [58]: 1.18 µM
GI50 [46]: 1.73 µM
TGI [46]: 3.45 µM
GI50 [48]: 1.18 µM
TGI [48]: 2.49 µM
GI50 [49]: 1.13 µM
TGI [49]: 3.32 µM
GI50 [50]: 1.06 µM
TGI [50]: > 50 µM
GI50 [51]: 0.576 µM
TGI [51]: 1.19 µM
GI50 [52]: 0.76 µM
GI50 [53]: 0.424 µM
TGI [53]: 0.954 µM
GI50 [54]: 0.85 µM
TGI [54]: 1.64 µM
GI50 [55]: 0.465 µM
TGI [55]: 1.03 µM
GI50 [56]: 2.05 µM
TGI [56]: 16.2 µM
GI50 [57]: 0.706 µM
TGI [57]: 1.37 µM
